Test results: patent US6506936B1, “N-substituted arylsulfonylamino hydroxamic acids useful as inhibitors of c-proteinase and for treating or preventing disorders related to unregulated collagen production” (FibroGen, Inc., priority 1999, dated 2003)

Tested on: human foreskin fibroblasts
Experiment: Cytotoxicity: metabolic activity (WST-1) of quiescent fibroblasts exposed to inhibitor
Assay type: cell-based
Settings: 25 μM compound, 0.5% DMSO, 48 hours, 60% or below = very sick or dead
Description: C-proteinase inhibitors were studied in cytotoxicity assays wherein quiescent cells were exposed to C-proteinase inhibitors for a given time and cell viability measured. By examining cellular metabolic activity, cell viability and cell survival were determined.
C-proteinase inhibitors were tested on human foreskin fibroblasts that had been grown to confluence in 96 well microtiter plates in Dulbecco's Modified Eagle Medium (DMEM) containing 10% fetal calf serum. Shortly before adding the inhibitors, the media was removed and 90 μl per microtiter well of fresh serum-free DMEM was added to the cells. The C-proteinase inhibitors were made up as concentrated stocks containing compound at 250 μM in the presence of 5% DMSO as solvent. A concentrated stock of 10 μl was added to each microtiter well to give a final compound concentration of 25 μM in the presence of 0.5% DMSO. The cells were incubated in the presence of the C-proteinase inhibitor for 48 hours, and then cell viability and survival were measured as a function of metabolic activity. To examine cellular metabolic activity, 10 μl of WST-1 reagent (Boehringer Mannheim) was added to each well of a 96 well microtiter plate containing quiescent cells that were already in media. The plate was incubated at 37° C. for 120 minutes and removed. The absorbance at 450 nm-650 nm was recorded. […] Controls included untreated healthy cells, and cells killed with 0.1% saponin.
Cytotoxicity was evaluated as a function of cellular survival. Cellular survival was determined by measuring the metabolic activity of the quiescent cells after exposure to the C-proteinase inhibitors. To determine the metabolic activity of the cells, the color change of a trazolium dye over time was examined according to Mossmann, […], Immunol. Methods 65:66; Carmichael, 1987, Cancer Res 47:936, incorporated herein by reference. Healthy cells cleaved the dye producing a colored product that can be quantitated. […] Dead cells had no metabolic activity and no effect on the dye was shown.
The amount of dye cleaved by cells that had been incubated with inhibitor, expressed as a percentage relative to untreated cells, is shown in TABLE 2. Cells that register at 60% or below are considered either very sick or dead. Control cells that were intentionally killed give a value of close to 20%.

With `CCCCOc1ccc(S(=O)(=O)N(CCC(=O)NO)CCc2cccs2)cc1` [Compound 1416] the “Percent Metabolic Activity of Fibroblasts Exposed To Various C-Proteinase Inhibitors Relative to Untreated Fibroblasts” value was 92.8%.

In the case of `O=C(CCN(CCc1cccs1)S(=O)(=O)c1ccc(Br)s1)NO` [Compound 1417], the “Percent Metabolic Activity of Fibroblasts Exposed To Various C-Proteinase Inhibitors Relative to Untreated Fibroblasts” value is reported as 120.3%.

For `O=C(CCN(CCc1cccs1)S(=O)(=O)c1ccc(S(=O)(=O)c2ccccc2)s1)NO` [Compound 1419], the “Percent Metabolic Activity of Fibroblasts Exposed To Various C-Proteinase Inhibitors Relative to Untreated Fibroblasts” value was 104.7%.

In the case of `O=C(CCN(CCc1cccs1)S(=O)(=O)c1cccs1)NO` [Compound 1425], the “Percent Metabolic Activity of Fibroblasts Exposed To Various C-Proteinase Inhibitors Relative to Untreated Fibroblasts” value is reported as 109.5%.

For `COc1ccc(CCN(CCC(=O)NO)S(=O)(=O)c2cccc(/C(N)=N/O)c2)cc1` [Compound 1456], the “Percent Metabolic Activity of Fibroblasts Exposed To Various C-Proteinase Inhibitors Relative to Untreated Fibroblasts” value was 106.8%.

In the case of `N/C(=N\O)c1cccc(S(=O)(=O)N(CCC(=O)NO)CCc2cccs2)c1` [Compound 1457], the “Percent Metabolic Activity of Fibroblasts Exposed To Various C-Proteinase Inhibitors Relative to Untreated Fibroblasts” value is reported as 107.4%.

`N/C(=N\O)c1cccc(S(=O)(=O)N(CCC(=O)NO)Cc2ccc3c(c2)OCO3)c1` [Compound 1458] was tested, and the “Percent Metabolic Activity of Fibroblasts Exposed To Various C-Proteinase Inhibitors Relative to Untreated Fibroblasts” value was 111.0%.

With `CS(=O)(=O)c1ccc(S(=O)(=O)N(CCC(=O)NO)CCc2cccs2)cc1` [Compound 1463] the “Percent Metabolic Activity of Fibroblasts Exposed To Various C-Proteinase Inhibitors Relative to Untreated Fibroblasts” value was 110.0%.

For `CS(=O)(=O)c1ccc(S(=O)(=O)N(CCC(=O)NO)Cc2ccc3c(c2)OCO3)cc1` [Compound 1464], the “Percent Metabolic Activity of Fibroblasts Exposed To Various C-Proteinase Inhibitors Relative to Untreated Fibroblasts” value was 111.0%.
